According to US20030162778A1, “Carbocyclic side chain containing metalloprotease inhibitors” (The Procter and Gamble Company, priority 2000, published 2003):

Assays:
asthma sufferer = assay: Example E: inhalation aerosol for an asthma sufferer; format: in vivo, human; conditions: 5.0% w/v aerosol, 0.01 mL sprayed into the mouth while inhaling
Experimental: An inhalation aerosol composition, according to the present invention, is made comprising: [table] An asthma sufferer sprays 0.01 mL via a pump actuator into the mouth while inhaling. Asthma symptoms are diminished.

[1] = tested on: human subject with a premetastatic tumor; assay: Example G: parenteral suspension injected next to a premetastatic tumor; format: in vivo; conditions: about 2.0 mL of 100 mg/mL suspension injected beside the tumor twice daily; after 30 days
Experimental: A composition for parenteral administration is made comprising:
The above ingredients are mixed, forming a suspension. Approximately 2.0 mL of the suspension is administered, via injection, to a human subject with a premetastatic tumor. The injection site juxtaposes the tumor. This dosage is repeated twice daily, for approximately 30 days.

[2] = tested on: human subject suffering from rheumatoid arthritis; assay: Example A: tablet given to a human subject suffering from rheumatoid arthritis; format: in vivo; conditions: three tablets (15 mg compound each) per day orally for 2 years, 60 kg person
Experimental: A tablet composition for oral administration, according to the present invention, is made comprising:
A human subject weighing 60 kg (132 lbs), suffering from rheumatoid arthritis, is treated by a method of this invention. Specifically, for 2 years, a regimen of three tablets per day is administered orally to said subject.

[3] = tested on: patient having deep corneal abrasion; assay: Example C: saline-based drops for a patient having deep corneal abrasion; format: in vivo, human; conditions: 5% w/w drop to each eye twice a day
Text: A saline-based composition for local administration, according to the present invention, is made comprising:
A patient having deep corneal abrasion applies the drop to each eye twice a day.

[4] = tested on: patient suffering from chemical burns; assay: Example D: topical composition for a patient suffering from chemical burns; format: in vivo, human; conditions: 0.20% w/v topical composition at each dressing change (b.i.d.)
Text: A topical composition for local administration, according to the present invention, is made comprising:
A patient suffering from chemical burns applies the composition at each dressing change (b.i.d.).

[5] = tested on: human subject suffering from osteoarthritis; assay: Example B: capsule given to a human subject suffering from osteoarthritis; format: in vivo; conditions: capsule containing 70 mg daily for 5 years, 90 kg person
Experimental: A capsule for oral administration, according to the present invention, is made comprising:
A human subject weighing 90 kg (198 lbs.), suffering from osteoarthritis, is treated by a method of this invention. Specifically, for 5 years, a capsule containing 70 mg of the compound of Example 3 is administered daily to said subject.

SMILES: COc1ccc(-c2ccc(S(=O)(=O)NC(C(=O)O)C3CCCC(N(C)C(C)=O)C3)cc2)cc1 (centres unmarked) [Example 33, N-{[4′-methoxy-(1,1-biphenyl)-4-yl]-sulfonyl}-amino-[3-(N-methyl-N-acetylamino)-cyclohexan-1-yl]-acetic Acid]
- asthma symptoms (asthma sufferer): diminished

SMILES: COc1ccc(-c2ccc(S(=O)(=O)NC(C(=O)O)C3CCCC(N(Cc4ccccc4)S(C)(=O)=O)C3)cc2)cc1 (centres unmarked) [Example 31, N-{[4′-methoxy-(1,1′-biphenyl)-4-yl]-sulfonyl}-amino-[3-(N-benzyl-N-methanesulfonylamino)-cyclohexan-1-yl]-acetic acid]
- symptoms of the disease [1]: subside
- inflammation at the end of the treatment period [2]: reduced inflammation
- mobility at the end of the treatment period [2]: improved mobility without concomitant pain

SMILES: COc1ccc(-c2ccc(S(=O)(=O)NC(C(=O)O)C3CCC(O)CC3)cc2)cc1 (centres unmarked) [Example 1, N-{[4′-Methoxy-(1,1′-biphenyl)-4-yl]-sulfonylamino}-(4-hydroxycyclohexan-1-yl)-acetic Acid]
- healing of deep corneal abrasion [3]: speeded
- visual sequelae [3]: no visual sequelae

SMILES: O=C(O)[C@H](NS(=O)(=O)c1ccc(-c2ccc(Br)cc2)cc1)C1CCC2(CC1)OCCCO2 [Example 3, (R)-N-{[4′-bromo-(1,1′-biphenyl)-4-yl]-sulfonyl}-amino-(1,5-dioxa-spiro[5.5]undec-9-yl)-acetic]
- scarring [4]: substantially diminished
- advancement of erosion/fibrillation of the articular cartilage (x-ray, arthroscopy and/or MRI) [5]: no further advancement
